Experiments:
[1] = target: KRAS G12C (Homo sapiens, UniProt P01116, G12C); assay: Cell Activity Assay: accumulation of GDP-bound KRAS G12C in MIAPaCa-2 cells (Raf-1 RBD capture, MSD readout); assay type: cell-based; parameters: endogenous in cells; host or cells: MIAPaCa-2; conditions: 6 hours, assay limit is 30.00
In short: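 IC50 came from a 4-parameter fit of Ras signal normalized between DMSO and full-inhibition controls. Readout: lysate GTP-Ras bound to immobilized Raf-1 RBD, quantified with pan-Ras antibody and MSD electrochemiluminescence. Lysates derived from MIAPaCa-2 cells treated 6 h with serially diluted compound, 0.3% DMSO.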

[2] = target: T1, GDP-loaded KRAS (1-169) G12C, C51S, C80L, C118S (Homo sapiens, UniProt P01116, C118S/C51S/C80L/G12C); assay: Mass Spectrometry Reactivity Assay (MSRA): covalent adduct of compound and KRAS G12C, Percent Modification; assay type: binding; conditions: for MSRA (% modification) 5.0 μM 0.017 hr / MSRA (% modification) 5.0 μM 0.25 hr: 5.0 μM compound; for MSRA (% modification) 10 μM 0.50 hr / MSRA (% modification) 10 μM 0.25 hr: 10 μM compound
T1 construct: GDP-loaded KRAS (1-169) G12C, C51S, C80L, C118S
In short: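 Covalent labelling is measured by intact mass: deconvoluted modified and unmodified peak intensities yield percent modification. Compound, usually 5 μM or 10 μM final, reacts at room temperature with 5 μM GDP-bound KRAS G12C (1-169, C51S/C80L/C118S) in Hepes pH 7.5/NaCl/glycerol, sampled at 1, 15, 30, 60 min.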

For `C=CC(=O)N1CCN(c2nc(O[C@@H]3CN(CC)C[C@H]3OC)nc3c(Oc4c(Cl)c(F)cc5[nH]ncc45)nccc23)CC1` [Example 17H, 1-[4-(8-[(5-chloro-6-fluoro-1H-indazol-4-yl)oxy]-2-{[(3R,4R)-1-ethyl-4-methoxypyrrolidin-3-yl]oxy}pyrido[3,4-d]pyrimidin-4-yl)piperazin-1-yl]prop-2-en-1-on], the IC50 [1] was 0.026 µM and the “MSRA (% modification) 5.0 μM 0.017 hr” value [2] was 69%.

For `C=CC(=O)N1CCN(c2nc(Oc3cccc4c3CCN(CC)C4)nc3c(Oc4c(Cl)c(F)cc5[nH]ncc45)nccc23)CC1` [Example 17I, 1-(4-{8-[(5-chloro-6-fluoro-1H-indazol-4-yl)oxy]-2-[(2-ethyl-1,2,3,4-tetrahydro-isoquinolin-5-yl)oxy]pyrido [3,4-d]pyrimidin-4-yl}piperazin-1-yl)prop-2-en-1-one], the IC50 [1] was 0.005 µM and the “MSRA (% modification) 5.0 μM 0.017 hr” value [2] was 82%.

In the case of `C=CC(=O)N1CCN(c2ncnc3c(Oc4c(C)ccc5[nH]ncc45)nc(C#N)cc23)CC1` [Example 18A, 4-(4-acryloylpiperazin-1-yl)-8-[(5-methyl-1H-indazol-4-yl)oxy]pyrido[3,4-d]pyrimidine-6-carbonitrile], the IC50 [1] is reported as 6.45 µM and the “MSRA (% modification) 10 μM 0.50 hr” value [2] is reported as 34%.

For `C=CC(=O)N1CCN(c2ncnc3c(Oc4c(Cl)c(F)cc5[nH]ncc45)cccc23)CC1` [Example 18C, 1-(4-{8-[(5-chloro-6-fluoro-1H-indazol-4-yl)oxy]quinazolin-4-yl}piperazin-1-yl)prop-2-en-1-one], the IC50 [1] was 1.1 µM, the “MSRA (% modification) 5.0 μM 0.25 hr” value [2] was 36% and the “MSRA (% modification) 10 μM 0.50 hr” value [2] was 50%.

In the case of `C=CC(=O)N1CCN(c2nc(OC[C@H]3CCN(C)C3)nc3c(Oc4c(Cl)c(F)cc5[nH]ncc45)nccc23)CC1` [Example 18E, 1-[4-(8-[(5-chloro-6-fluoro-1H-indazol-4-yl)oxy]-2-{[(3S)-1-methylpyrrolidin-3-yl]methoxy}pyrido[3,4-d]pyrimidin-4-yl)piperazin-1-yl]prop-2-en-1-one], the IC50 [1] is reported as 0.262 µM and the “MSRA (% modification) 10 μM 0.25 hr” value [2] is reported as 80%.

With `C=CC(=O)N1CCN(c2nc(N3CC4(C3)C(=O)NCN4C)nc3c(Oc4c(C)ccc5[nH]ncc45)cccc23)CC1` [Example 18F, 2-{4-(4-acryloylpiperazin-1-yl)-8-[(5-methyl-1H-indazol-4-yl)oxy]quinazolin-2-yl}-5-methyl-2,5,7-triazaspiro[3.4]octan-8-one] the IC50 [1] was 29.3 µM and the “MSRA (% modification) 10 μM 0.50 hr” value [2] was 23%.

`C=CC(=O)N1CCN(c2nc(O[C@@H]3CN(CCOC)C[C@H]3OC)nc3c(Oc4c(Cl)c(F)cc5[nH]ncc45)nccc23)CC1` [Example 18H, 1-[4-(8-[(5-chloro-6-fluoro-1H-indazol-4-yl)oxy]-2-{[(3R,4R)-4-methoxy-1-(2-methoxyethyl)pyrrolidin-3-yl]oxy}pyrido[3,4-d]pyrimidin-4-yl)piperazin-1-yl]prop-2-en-1-one] was tested, and the IC50 [1] was 0.07 µM and the “MSRA (% modification) 5.0 μM 0.017 hr” value [2] was 52%.

In the case of `C=CC(=O)N1CCN(c2nc(O[C@@H]3CN(C)C[C@H]3OCC)nc3c(Oc4c(Cl)c(F)cc5[nH]ncc45)nccc23)CC1` [Example 18I, 1-[4-(8-[(5-chloro-6-fluoro-1H-indazol-4-yl)oxy]-2-{[(3R,4R)-4-ethoxy-1-methyl-pyrrolidin-3-yl]oxy}pyrido [3,4-d]pyrimidin-4-yl)piperazin-1-yl]prop-2-en-1-one], the IC50 [1] is reported as 0.093 µM and the “MSRA (% modification) 5.0 μM 0.017 hr” value [2] is reported as 35%.

With `C=CC(=O)N1CCN(c2ncnc3c(Oc4c(Cl)c(C)cc5[nH]ncc45)nc(C#N)cc23)CC1` [Example 19A, 4-(4-acryloylpiperazin-1-yl)-8-[(5-chloro-6-methyl-1H-indazol-4-yl)oxy]pyrido[3,4-d]pyrimidine-6-carbonitrile] the IC50 [1] was 28 µM, the “MSRA (% modification) 10 μM 0.25 hr” value [2] was 21% and the “MSRA (% modification) 10 μM 0.50 hr” value [2] was 33%.

`C=CC(=O)N1CCN(c2nc(OC[C@H]3CCN(C)C3)nc3c(Oc4c(C)ccc5[nH]ncc45)nccc23)CC1` [Example 19E, 1-[4-(8-[(5-methyl-1H-indazol-4-yl)oxy]-2-{[(3S)-1-methylpyrrolidin-3-yl]methoxy}pyrido[3,4-d]pyrimidin-4-yl)piperazin-1-yl]prop-2-en-1-one] was tested, and the IC50 [1] was 29.8 µM and the “MSRA (% modification) 10 μM 0.25 hr” value [2] was 33%.

For `C=CC(=O)N1CCN(c2nc(NCCN3CCN(C)CC3)nc3c(Oc4c(C)ccc5[nH]ncc45)cccc23)CC1` [Example 19F, 1-[4-(8-[(5-methyl-1H-indazol-4-yl)oxy]-2-{[2-(4-methylpiperazin-1-yl)ethyl]amino}quinazolin-4-yl)piperazin-1-yl]prop-2-en-1-one], the IC50 [1] was 3.7 µM and the “MSRA (% modification) 10 μM 0.25 hr” value [2] was 24%.

`C=CC(=O)N1CCN(c2nc(O[C@@H]3CN(C)C[C@H]3OC)nc3c(Oc4c(Cl)c(Cl)cc5[nH]ncc45)nccc23)CC1` [Example 19H, 1-[4-(8-[(5,6-dichloro-1H-indazol-4-yl)oxy]-2-{[(3R,4R)-4-methoxy-1-methylpyrrolidin-3-yl]oxy}pyrido[3,4-d]pyrimidin-4-yl)piperazin-1-yl]prop-2-en-1-one] was tested, and the IC50 [1] was 0.004 µM and the “MSRA (% modification) 5.0 μM 0.017 hr” value [2] was 66%.

For `C=CC(=O)N1CCN(c2nc(Oc3cccc4c3CCN(C(C)C)C4)nc3c(Oc4c(Cl)c(F)cc5[nH]ncc45)nccc23)CC1` [Example 19I, 1-[4-(8-[(5-chloro-6-fluoro-1H-indazol-4-yl)oxy]-2-{[2-(propan-2-yl)-1,2,3,4-tetrahydro-isoquinolin-5-yl]oxy}pyrido [3,4-d]pyrimidin-4-yl)piperazin-1-yl]prop-2-en-1-one], the IC50 [1] was 0.003 µM and the “MSRA (% modification) 5.0 μM 0.017 hr” value [2] was 82%.

For `C=CC(=O)N1CCN(c2nc(OC[C@H]3CCCN3C)nc3c(Oc4c(Cl)c(F)cc5[nH]ncc45)cccc23)CC1` [Example 20E, 1-[4-(8-[(5-chloro-6-fluoro-1H-indazol-4-yl)oxy]-2-{[(2R)-1-methylpyrrolidin-2-yl]methoxy}quinazolin-4-yl)piperazin-1-yl]prop-2-en-1-one], the IC50 [1] was 1.02 µM and the “MSRA (% modification) 10 μM 0.25 hr” value [2] was 8%.

For `C=CC(=O)N1CCN(c2nc(NCc3ncc[nH]3)nc3c(Oc4c(C)ccc5[nH]ncc45)cccc23)CC1` [Example 20F, 1-(4-{2-[(1H-imidazol-2-ylmethyl)amino]-8-[(5-methyl-1H-indazol-4-yl)oxy]quinazolin-4-yl}piperazin-1-yl)prop-2-en-1-one], the IC50 [1] was 2.99 µM and the “MSRA (% modification) 10 μM 0.25 hr” value [2] was 17%.

With `C=CC(=O)N1CCN(c2nc(O[C@@H]3CN(C(C)C)C[C@H]3OC)nc3c(Oc4c(Cl)c(F)cc5[nH]ncc45)nccc23)CC1` [Example 20I, 1-[4-(8-[(5-chloro-6-fluoro-1H-indazol-4-yl)oxy]-2-{[(3R,4R)-4-methoxy-1-(propan-2-yl)pyrrolidin-3-yl]oxy}pyrido [3,4-d]pyrimidin-4-yl)piperazin-1-yl]prop-2-en-1-one] the IC50 [1] was 0.016 µM and the “MSRA (% modification) 5.0 μM 0.017 hr” value [2] was 73%.

`C=CC(=O)N1CCN(c2ncnc3c(Oc4c(Cl)c(C)cc5[nH]ncc45)nccc23)C[C@H]1C` [Example 21A, 1-[(2R)-4-{8-[(5-chloro-6-methyl-1H-indazol-4-yl)oxy]pyrido[3,4-d]pyrimidin-4-yl}-2-methylpiperazin-1-yl]prop-2-en-1-one] was tested, and the IC50 [1] was 10.6 µM and the “MSRA (% modification) 10 μM 0.50 hr” value [2] was 12%.

`C=CC(=O)N1CCN(c2nc(OC[C@H]3CCCN3C)nc3c(Oc4c(C)c(Cl)cc5[nH]ncc45)cccc23)CC1` [Example 21E, 1-[4-(8-[(6-chloro-5-methyl-1H-indazol-4-yl)oxy]-2-{[(2R)-1-methylpyrrolidin-2-yl]methoxy}quinazolin-4-yl)piperazin-1-yl]prop-2-en-1-one] was tested, and the IC50 [1] was 0.18 µM and the “MSRA (% modification) 10 μM 0.25 hr” value [2] was 65%.

`C=CC(=O)N1CCN(c2nc(OCC3CCCCN3C)nc3c(Oc4c(C)ccc5[nH]ncc45)cccc23)CC1` (centres unmarked) [Example 21F, 1-(4-{8-[(5-methyl-1H-indazol-4-yl)oxy]-2-[(1-methylpiperidin-2-yl)methoxy]quinazolin-4-yl}piperazin-1-yl)prop-2-en-1-one] was tested, and the IC50 [1] was 0.283 µM and the “MSRA (% modification) 5.0 μM 0.25 hr” value [2] was 61%.

With `C=CC(=O)N1CCN(c2nc(OC[C@@H]3C[C@H](F)CN3C)nc3c(Oc4c(Cl)c(F)cc5[nH]ncc45)nc(Cl)cc23)CC1` [Example 21G, 1-[4-(6-chloro-8-[(5-chloro-6-fluoro-1H-indazol-4-yl)oxy]-2-{[(2S,4S)-4-fluoro-1-methylpyrrolidin-2-yl]methoxy}pyrido[3,4-d]pyrimidin-4-yl)piperazin-1-yl]prop-2-en-1-one] the IC50 [1] was 0.075 µM and the “MSRA (% modification) 10 μM 0.25 hr” value [2] was 80%.

In the case of `C=CC(=O)N1CCN(c2ncnc3c(Oc4c(Cl)c(C)cc5[nH]ncc45)nccc23)C[C@@H]1C` [Example 22A, 1-[(2S)-4-{8-[(5-chloro-6-methyl-1H-indazol-4-yl)oxy]pyrido[3,4-d]pyrimdin-4-yl}-2-methylpiperazin-1-yl]prop-2-en-1-one], the IC50 [1] is reported as 15.6 µM and the “MSRA (% modification) 10 μM 0.50 hr” value [2] is reported as 10%.

From patent publication US10662204B2 (PFIZER INC., priority 2018, dated 2020)
